Reference: US20070128217A1 (priority 2003, published 2007)

Key:
[1] = tested on: antibodies in sera from SARS patients (sera 1a, 1b, 2, 6, 37, 62, London, SARS-yellow, SARS-green); assay type: binding, human; set-up: Binding of serum 6 to linear peptides of protein X1 of SARS-CoV Urbani / Binding of serum 37 to linear peptides of protein X1 of SARS-CoV Urbani / Binding of serum 6 to looped/cyclic peptide (PEPSCAN-ELISA) / Binding of serum 37 to looped/cyclic peptide (PEPSCAN-ELISA) / Binding of serum 37 to looped/cyclic peptides of protein X1 of SARS-CoV Urbani / Binding of serum 6 to linear peptides of protein X2 / Binding of serum 37 to linear peptides of protein X2 / Binding of serum 37 to looped/cyclic peptides of protein X2 of SARS-CoV Urbani / Binding of serum 6 to linear peptides of protein M of SARS-CoV Urbani / Binding of serum 37 to linear peptides of protein M of SARS-CoV Urbani / Binding of serum 6 to looped/cyclic peptides of protein M of SARS-CoV Urbani / Binding of serum 37 to looped/cyclic peptides of protein M of SARS-CoV Urbani / Binding of serum 6 to linear peptides of protein X3 of SARS-CoV Urbani / Binding of serum 37 to linear peptides of protein X3 of SARS-CoV Urbani / Binding of serum 37 to looped/cyclic peptides of protein X3 of SARS-CoV Urbani / Binding of serum 6 to linear peptides of protein X4 of SARS-CoV Urbani / Binding of serum 37 to linear peptides of protein X4 of SARS-CoV Urbani / Binding of serum 37 to looped/cyclic peptides of protein X4 of SARS-CoV Urbani / Binding of serum 6 to linear peptides of protein X5 of SARS-CoV Urbani / Binding of serum 37 to linear peptides of protein X5 of SARS-CoV Urbani / Binding of serum 37 to looped/cyclic peptides of protein X5 of SARS-CoV Urbani / Binding of serum 6 to linear peptides of protein N of SARS-CoV Urbani / Binding of serum 37 to linear peptides of protein N of SARS-CoV Urbani / Binding of serum 6 to linear peptide (PEPSCAN-ELISA) / Binding of serum 1a to looped/cyclic peptides of protein N of SARS-CoV Urbani / Binding of serum 1b to looped/cyclic peptides of protein N of SARS-CoV Urbani / Binding of serum 2 to looped/cyclic peptides of protein N of SARS-CoV Urbani / Binding of serum 6 to looped/cyclic peptides of protein N of SARS-CoV Urbani / Binding of serum 37 to looped/cyclic peptides of protein N of SARS-CoV Urbani / Binding of serum 62 to looped/cyclic peptides of protein N of SARS-CoV Urbani / Binding of serum London to looped/cyclic peptides of protein N of SARS-CoV Urbani / Binding of serum SARS-green to looped/cyclic peptides of protein N of SARS-CoV Urbani: unit not given here
[2] = tested on: control sera (pooled serum of ten healthy LUMC hospital workers; commercial negative donor pooled serum from the Dutch bloodbank); assay type: binding, human; set-up: Binding of Control serum LUMC to linear peptides / Binding of Control serum Blood-bank to linear peptides / Binding of Control serum LUMC to looped peptides / Binding of Control Serum Blood-Bank to Looped peptides / Binding of Control serum LUMC to linear peptides of the protein M of SARS-CoV Urbani / Binding of Control serum Blood-bank to linear peptides of the protein M of SARS-CoV Urbani / Binding of Control serum LUMC to looped peptides of the protein M of SARS-CoV Urbani / Binding of Control Serum Blood-Bank to Looped peptides of the protein M of SARS-CoV Urbani: unit not given here
[3] = tested on: rabbit serum obtained by immunizing a rabbit with the SARS-CoV strain Frankfurt 1; assay type: binding; set-up: Binding of a rabbit serum to linear peptides / Binding of a rabbit serum to looped peptides / Rabbit serum linear peptides / Rabbit serum looped peptides / Binding of a rabbit serum to linear peptides of protein N of SARS-CoV Urbani (Rabbit serum linear peptides) / Binding of a rabbit serum to looped/cyclic peptides of protein N of SARS-CoV Urbani (Rabbit serum looped peptides): unit not given here
[4] = tested on: recombinant human anti-SARS-CoV antibody 03-018; assay type: binding; set-up: Binding of antibody 03-018 to linear peptides of the N protein of SARS-CoV Urbani / Binding of antibody 03-018 to looped/cyclic peptides of the N protein of SARS-CoV Urbani: unit not given here

Sequence	Binding of serum 1a to linear peptides of protein N of SARS-CoV Urbani [1]	Binding of serum 1a to looped/cyclic peptides of protein N of SARS-CoV Urbani [1]	Binding of serum 1b to linear peptides of protein N of SARS-CoV Urbani [1]	Binding of serum 1b to looped/cyclic peptides of protein N of SARS-CoV Urbani [1]	Binding of serum 2 to linear peptides of protein N of SARS-CoV Urbani [1]	Binding of serum 2 to looped/cyclic peptides of protein N of SARS-CoV Urbani [1]	Binding of serum 6 to linear peptides of protein N of SARS-CoV Urbani [1]	Binding of serum 6 to looped/cyclic peptides of protein N of SARS-CoV Urbani [1]	Binding of serum 37 to linear peptides of protein N of SARS-CoV Urbani [1]	Binding of serum 37 to looped/cyclic peptides of protein N of SARS-CoV Urbani [1]	Binding of serum 62 to linear peptides of protein N of SARS-CoV Urbani [1]	Binding of serum 62 to looped/cyclic peptides of protein N of SARS-CoV Urbani [1]	Binding of serum London to linear peptides of protein N of SARS-CoV Urbani [1]	Binding of serum London to looped/cyclic peptides of protein N of SARS-CoV Urbani [1]	Binding of serum SARS-green to linear peptides of protein N of SARS-CoV Urbani [1]	Binding of serum SARS-yellow to linear peptides of protein N of SARS-CoV Urbani [1]	Binding of serum SARS-yellow to looped/cyclic peptides of protein N of SARS-CoV Urbani [1]	Binding of antibody 03-018 to linear peptides of the N protein of SARS-CoV Urbani [4]	Binding of antibody 03-018 to looped/cyclic peptides of the N protein of SARS-CoV Urbani [4]	Control Serum Blood-Bank Looped peptides [2]	other results
SGPDDQIGYYRRATR	0.2	0.4	0.1	0.3	0.2	0.5	0.2	0.4	0.6	0.8	0.6	0.7	0.4	0.5	0.4	0.6	0.7	0.1	0.3	–	Binding of serum SARS-green to looped/cyclic peptides of protein N of SARS-CoV Urbani [1]: 0.5; Binding of Control Serum Blood-Bank to Looped peptides [2]: 0.8; Binding of Control serum Blood-bank to linear peptides [2]: 0.8; Binding of Control serum LUMC to linear peptides [2]: 0.7; Binding of Control serum LUMC to looped peptides [2]: 0.9; Recognition of the peptide by the rabbit serum [3]: recognized
SRIGMEVTPSGTWLT	0.2	0.3	0.1	0.2	0.2	0.4	0.2	0.2	0.7	0.5	0.6	0.5	0.5	0.4	0.4	0.6	0.4	0.1	0.2	0.6	Binding of serum SARS-green to looped/cyclic peptides of protein N of SARS-CoV Urbani [1]: 0.5; Control serum Blood-bank linear peptides [2]: 0.8; Control serum LUMC linear peptides [2]: 0.6; Control serum LUMC looped peptides [2]: 0.6; Binding of a rabbit serum to linear peptides of protein N of SARS-CoV Urbani (Rabbit serum linear peptides) [3]: 0.1; Binding of a rabbit serum to looped/cyclic peptides of protein N of SARS-CoV Urbani (Rabbit serum looped peptides) [3]: 0.4
QIAQFAPSASAFFGM	0.3	0.5	0.1	0.3	0.2	0.5	0.2	0.3	0.7	0.8	0.6	0.8	0.5	0.5	0.7	0.7	0.5.	0.1	0.3	0.9	Binding of serum SARS-green to looped/cyclic peptides of protein N of SARS-CoV Urbani [1]: 0.5; Control serum Blood-bank linear peptides [2]: 0.9; Control serum LUMC linear peptides [2]: 0.7; Control serum LUMC looped peptides [2]: 0.7; Binding of a rabbit serum to linear peptides of protein N of SARS-CoV Urbani (Rabbit serum linear peptides) [3]: 0.1; Binding of a rabbit serum to looped/cyclic peptides of protein N of SARS-CoV Urbani (Rabbit serum looped peptides) [3]: 0.5
GTDYKHWPQIAQFAP	0.3	0.5	0.1	0.3	0.2	0.5	0.2	0.3	0.7	0.7	0.8	0.7	0.6	0.5	0.6	0.7	0.7	0.1	0.2	0.8	Control serum Blood-bank linear peptides [2]: 0.8; Control serum LUMC linear peptides [2]: 0.6; Control serum LUMC looped peptides [2]: 0.7; Binding of a rabbit serum to linear peptides of protein N of SARS-CoV Urbani (Rabbit serum linear peptides) [3]: 0.2; Binding of a rabbit serum to looped/cyclic peptides of protein N of SARS-CoV Urbani (Rabbit serum looped peptides) [3]: 0.5
QRQKKQPTVTLLPAA	0.3	–	0.1	–	0.3	–	0.2	–	0.7	–	0.8	–	0.6	–	0.7	0.6	–	0.1	0.3	1.1	Recognition of the peptide by sera of SARS-CoV infected individuals, and form (linear, looped/cyclic) in which it is recognized [1]: recognized in looped/cyclic form; Control serum Blood-bank linear peptides [2]: 0.8; Control serum LUMC linear peptides [2]: 0.7; Control serum LUMC looped peptides [2]: 0.8; Binding of a rabbit serum to linear peptides of protein N of SARS-CoV Urbani (Rabbit serum linear peptides) [3]: 0.2; Binding of a rabbit serum to looped/cyclic peptides of protein N of SARS-CoV Urbani (Rabbit serum looped peptides) [3]: 0.7
